Literature values as cited in article PMC8955938, “c-Myc Protein Level Affected by Unsymmetrical Bisacridines Influences Apoptosis and Senescence Induced in HCT116 Colorectal and H460 Lung Cancer Cells” (International Journal of Molecular Sciences, 2022).

Design: method as in PMID 26485768, PMID 17009029, PMID 21805041, PMID 30894570
Conditions: established in similar conditions; irinotecan colon cancer treatment, cisplatin lung cancer treatment; cited from earlier work

| SMILES | IC50 |
| --- | --- |
| N.N.[Cl][Pt][Cl] [cisplatin] | ~5 µM |
| CCc1c2c(nc3ccc(OC(=O)N4CCC(N5CCCCC5)CC4)cc13)-c1cc3c(c(=O)n1C2)COC(=O)[C@]3(O)CC [irinotecan] | ~5 µM |
